# Assay results: patent US12544463B2, “Deuterium substituted positron emission tomography (PET) imaging agents and their pharmacological application” (Five Eleven Pharma Inc., priority 2017, dated 2026)
# Several values for one entry are separate records, joined by “and”; a condition that tells them apart may be missing. Equal values may be shown once.
# What was measured:
# [1] = Biodistribution in rats: ^18F-FP-(+)DTBZ vs ^18F-FP-DTBZ-D6; format: in vivo, rat; settings: for Biodistribution Blood / Biodistribution Bone / Biodistribution Brain / Biodistribution Heart / Biodistribution Kidney / Biodistribution Liver / Biodistribution Lung / Biodistribution Muscle / Biodistribution Pancreas / Biodistribution Skin / Biodistribution Spleen: IV
# Protocol: (§1) Three rats per group were used for each biodistribution study. While under isoflurane anesthesia, 0.2 mL of a saline solution containing 20 μCi of radioactive tracer was injected into the femoral vein. The rats were sacrificed at the time indicated by cardiac excision while under isoflurane anesthesia. Organs of interest were removed and weighed, and the radioactivity was counted. The percent dose per organ was calculated by comparing the tissue counts to counts of 1% of the initial dose (100 times diluted aliquots of the injected material) measured at the same time. Regional brain distribution in rats was measured after an iv injection of the radioactive tracer. Samples from different brain regions (cortex, striatum, hippocampus, cerebellum and hypothalamus) were dissected, weighed and counted. The percentage dose/g of each sample was calculated by comparing sample counts with the counts of the diluted initial dose described above. The ratio was calculated by dividing the percentage dose/g of each region by that of the cerebellum. The cerebellum was used as the reference region for calculating the ratio of target to non-target binding, because only a trace amount of VMAT2 binding site is present in the cerebellum.
# [2] = target: T1, VMAT2 (Rattus norvegicus, UniProt Q01827); test: Regional brain distribution and ratio vs cerebellum in rats (VMAT2 tracers); format: in vivo; settings: IV
# T1 construct: from tissue; host or cells: live rats (normal male CD rats), dissected brain regions
# Protocol: as §1
# [3] = 60 min, listed as 18F-FP-DTBZ-D6 (^18F-Ia)
# [4] = 120 min, listed as 18F-FP-DTBZ-D6 (^18F-Ia)
# T1 sequence (Q01827 whole entry): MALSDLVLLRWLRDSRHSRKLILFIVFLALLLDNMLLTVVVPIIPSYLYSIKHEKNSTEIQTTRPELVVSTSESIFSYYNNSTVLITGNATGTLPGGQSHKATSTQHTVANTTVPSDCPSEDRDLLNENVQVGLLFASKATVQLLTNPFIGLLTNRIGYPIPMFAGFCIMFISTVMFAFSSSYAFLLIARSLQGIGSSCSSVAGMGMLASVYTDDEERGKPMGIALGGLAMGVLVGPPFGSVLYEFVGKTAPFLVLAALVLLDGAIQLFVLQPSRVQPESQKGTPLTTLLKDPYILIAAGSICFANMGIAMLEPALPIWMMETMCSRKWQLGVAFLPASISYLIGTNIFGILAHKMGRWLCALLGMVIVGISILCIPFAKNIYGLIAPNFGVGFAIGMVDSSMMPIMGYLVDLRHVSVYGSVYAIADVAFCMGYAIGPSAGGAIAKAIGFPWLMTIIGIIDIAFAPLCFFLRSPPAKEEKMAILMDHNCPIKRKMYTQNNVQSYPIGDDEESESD
structure (smiles),measurement,setting,value
"COc1cc2c(cc1OCCC[18F])CCN1C[C@@H](CC(C)C)[C@H](O)C[C@H]21 [^18F-FP-(+)DTBZ, reference compound]",Biodistribution Blood,[1]; 2 min,0.24 ± 0.03 % dose/g
same,Biodistribution Bone,[1]; 2 min,0.45 ± 0.03 % dose/g
same,Biodistribution Brain,[1]; 2 min,0.83 ± 0.06 % dose/g
same,Biodistribution Heart,[1]; 2 min,0.96 ± 0.08 % dose/g
same,Biodistribution Kidney,[1]; 2 min,2.66 ± 0.15 % dose/g
same,Biodistribution Liver,[1]; 2 min,2.28 ± 0.04 % dose/g
same,Biodistribution Lung,[1]; 2 min,1.03 ± 0.03 % dose/g
same,Biodistribution Muscle,[1]; 2 min,0.11 ± 0.02 % dose/g
same,Biodistribution Pancreas,[1]; 2 min,2.29 ± 0.36 % dose/g
same,Biodistribution Skin,[1]; 2 min,0.19 ± 0.03 % dose/g
same,Biodistribution Spleen,[1]; 2 min,1.19 ± 0.10 % dose/g
same,Biodistribution Blood,[1]; 60 min,0.12 ± 0.00 % dose/g
same,Biodistribution Bone,[1]; 60 min,1.13 ± 0.07 % dose/g
same,Biodistribution Brain,[1]; 60 min,0.35 ± 0.03 % dose/g
same,Biodistribution Heart,[1]; 60 min,0.22 ± 0.03 % dose/g
same,Biodistribution Kidney,[1]; 60 min,0.63 ± 0.05 % dose/g
same,Biodistribution Liver,[1]; 60 min,2.59 ± 0.21 % dose/g
same,Biodistribution Lung,[1]; 60 min,0.41 ± 0.03 % dose/g
same,Biodistribution Muscle,[1]; 60 min,0.10 ± 0.01 % dose/g
same,Biodistribution Pancreas,[1]; 60 min,4.48 ± 0.27 % dose/g
same,Biodistribution Skin,[1]; 60 min,0.24 ± 0.03 % dose/g
same,Biodistribution Spleen,[1]; 60 min,0.50 ± 0.04 % dose/g
same,Biodistribution Blood,[1]; 120 min,0.07 ± 0.01 % dose/g
same,Biodistribution Bone,[1]; 120 min,1.86 % dose/g and 1.86 ± 0.24 % dose/g
same,Biodistribution Brain,[1]; 120 min,0.26 % dose/g and 0.26 ± 0.03 % dose/g
same,Biodistribution Heart,[1]; 120 min,0.16 ± 0.01 % dose/g
same,Biodistribution Kidney,[1]; 120 min,0.45 ± 0.02 % dose/g
same,Biodistribution Liver,[1]; 120 min,2.12 ± 0.20 % dose/g
same,Biodistribution Lung,[1]; 120 min,0.31 ± 0.02 % dose/g
same,Biodistribution Muscle,[1]; 120 min,0.07 ± 0.00 % dose/g
same,Biodistribution Pancreas,[1]; 120 min,3.56 ± 0.42 % dose/g
same,Biodistribution Skin,[1]; 120 min,0.17 ± 0.01 % dose/g
same,Biodistribution Spleen,[1]; 120 min,0.37 ± 0.05 % dose/g
same,Ratio vs. Cerebellum: Cerebellum,[2]; 2 min,1.00 ± 0.00
same,Ratio vs. Cerebellum: Cortex,[2]; 2 min,1.21 ± 0.04
same,Ratio vs. Cerebellum: Hippocampus,[2]; 2 min,1.19 ± 0.03
same,Ratio vs. Cerebellum: Hypothalamus,[2]; 2 min,1.57 ± 0.04
same,Ratio vs. Cerebellum: Remainder,[2]; 2 min,1.23 ± 0.03
same,Ratio vs. Cerebellum: Striatum,[2]; 2 min,1.66 ± 0.15
same,Regional Brain Distribution Cerebellum,[2]; 2 min,0.68 ± 0.06 % dose/gram
same,Regional Brain Distribution Cortex,[2]; 2 min,0.82 ± 0.07 % dose/gram
same,Regional Brain Distribution Hippocampus,[2]; 2 min,0.80 ± 0.07 % dose/gram
same,Regional Brain Distribution Hypothalamus,[2]; 2 min,1.06 ± 0.10 % dose/gram
same,Regional Brain Distribution Remainder,[2]; 2 min,0.83 ± 0.06 % dose/gram
same,Regional Brain Distribution Striatum,[2]; 2 min,1.12 ± 0.04 % dose/gram
same,Ratio vs. Cerebellum: Cerebellum,[2]; 60 min,1.00 ± 0.00
same,Ratio vs. Cerebellum: Cortex,[2]; 60 min,1.13 ± 0.09
same,Ratio vs. Cerebellum: Hippocampus,[2]; 60 min,1.64 ± 0.19
same,Ratio vs. Cerebellum: Hypothalamus,[2]; 60 min,3.91 ± 0.37
same,Ratio vs. Cerebellum: Remainder,[2]; 60 min,1.68 ± 0.07
same,Ratio vs. Cerebellum: Striatum,[2]; 60 min,5.66 and 5.66 ± 0.72
same,Regional Brain Distribution Cerebellum,[2]; 60 min,0.19 ± 0.02 % dose/gram
same,Regional Brain Distribution Cortex,[2]; 60 min,0.21 ± 0.01 % dose/gram
same,Regional Brain Distribution Hippocampus,[2]; 60 min,0.30 ± 0.01 % dose/gram
same,Regional Brain Distribution Hypothalamus,[2]; 60 min,0.73 ± 0.11 % dose/gram
same,Regional Brain Distribution Remainder,[2]; 60 min,0.31 ± 0.02 % dose/gram
same,Regional Brain Distribution Striatum,[2]; 60 min,1.04 ± 0.05 % dose/gram
same,Ratio vs. Cerebellum: Cerebellum,[2]; 120 min,1.00 ± 0.00
same,Ratio vs. Cerebellum: Cortex,[2]; 120 min,1.11 ± 0.09
same,Ratio vs. Cerebellum: Hippocampus,[2]; 120 min,1.79 ± 0.12
same,Ratio vs. Cerebellum: Hypothalamus,[2]; 120 min,4.04 ± 0.66
same,Ratio vs. Cerebellum: Remainder,[2]; 120 min,1.59 ± 0.09
same,Ratio vs. Cerebellum: Striatum,[2]; 120 min,6.54 ± 0.59
same,Regional Brain Distribution Cerebellum,[2]; 120 min,0.13 ± 0.01 % dose/gram
same,Regional Brain Distribution Cortex,[2]; 120 min,0.15 ± 0.02 % dose/gram
same,Regional Brain Distribution Hippocampus,[2]; 120 min,0.24 ± 0.03 % dose/gram
same,Regional Brain Distribution Hypothalamus,[2]; 120 min,0.54 ± 0.11 % dose/gram
same,Regional Brain Distribution Remainder,[2]; 120 min,0.21 ± 0.02 % dose/gram
same,Regional Brain Distribution Striatum,[2]; 120 min,0.87 ± 0.12 % dose/gram
[2H]C([2H])([18F])C([2H])([2H])C([2H])([2H])Oc1cc2c(cc1OC)[C@H]1C[C@@H](O)[C@H](CC(C)C)CN1CC2 [^18F-FP-(+)DTBZ-D6 (^18F-Ia)],increase in total brain uptake vs ^18F-FP-(+)DTBZ,[1]; 120 min after iv injection,40%
same,Biodistribution Blood,[1]; 2 min,0.23 ± 0.03 % dose/g
same,Biodistribution Bone,[1]; 2 min,0.33 ± 0.04 % dose/g
same,Biodistribution Brain,[1]; 2 min,0.64 ± 0.07 % dose/g
same,Biodistribution Heart,[1]; 2 min,0.69 ± 0.12 % dose/g
same,Biodistribution Kidney,[1]; 2 min,1.89 ± 0.07 % dose/g
same,Biodistribution Liver,[1]; 2 min,2.79 ± 0.12 % dose/g
same,Biodistribution Lung,[1]; 2 min,0.87 ± 0.05 % dose/g
same,Biodistribution Muscle,[1]; 2 min,0.17 ± 0.02 % dose/g
same,Biodistribution Pancreas,[1]; 2 min,2.62 ± 0.15 % dose/g
same,Biodistribution Skin,[1]; 2 min,0.24 ± 0.02 % dose/g
same,Biodistribution Spleen,[1]; 2 min,1.04 ± 0.10 % dose/g
same,Biodistribution Blood,[1]; 60 min,0.11 ± 0.01 % dose/g
same,Biodistribution Bone,[1]; 60 min,0.47 ± 0.02 % dose/g
same,Biodistribution Brain,[1]; 60 min,0.44 ± 0.02 % dose/g
same,Biodistribution Heart,[1]; 60 min,0.26 ± 0.01 % dose/g
same,Biodistribution Kidney,[1]; 60 min,0.66 ± 0.04 % dose/g
same,Biodistribution Liver,[1]; 60 min,3.19 ± 0.46 % dose/g
same,Biodistribution Lung,[1]; 60 min,0.49 ± 0.00 % dose/g
same,Biodistribution Muscle,[1]; 60 min,0.11 ± 0.00 % dose/g
same,Biodistribution Pancreas,[1]; 60 min,5.01 ± 0.69 % dose/g
same,Biodistribution Skin,[1]; 60 min,0.25 ± 0.01 % dose/g
same,Biodistribution Spleen,[1]; 60 min,0.66 ± 0.03 % dose/g
same,Biodistribution Bone,[1]; [3],0.47 % dose/g
same,Biodistribution Blood,[1]; 120 min,0.10 ± 0.00 % dose/g
same,Biodistribution Bone,[1]; 120 min,0.65 ± 0.03 % dose/g
same,Biodistribution Brain,[1]; 120 min,0.34 ± 0.02 % dose/g
same,Biodistribution Heart,[1]; 120 min,0.21 ± 0.01 % dose/g
same,Biodistribution Kidney,[1]; 120 min,0.59 ± 0.02 % dose/g
same,Biodistribution Liver,[1]; 120 min,3.10 ± 0.49 % dose/g
same,Biodistribution Lung,[1]; 120 min,0.41 ± 0.01 % dose/g
same,Biodistribution Muscle,[1]; 120 min,0.09 ± 0.01 % dose/g
same,Biodistribution Pancreas,[1]; 120 min,4.49 ± 0.17 % dose/g
same,Biodistribution Skin,[1]; 120 min,0.21 ± 0.01 % dose/g
same,Biodistribution Spleen,[1]; 120 min,0.51 ± 0.03 % dose/g
same,Biodistribution Bone,[1]; [4],0.65 % dose/g
same,Biodistribution Brain,[1]; [4],0.34 % dose/g
same,Ratio vs. Cerebellum: Cerebellum,[2]; 2 min,1.00 ± 0.00
same,Ratio vs. Cerebellum: Cortex,[2]; 2 min,1.36 ± 0.05
same,Ratio vs. Cerebellum: Hippocampus,[2]; 2 min,1.26 ± 0.04
same,Ratio vs. Cerebellum: Hypothalamus,[2]; 2 min,1.71 ± 0.10
same,Ratio vs. Cerebellum: Remainder,[2]; 2 min,1.33 ± 0.03
same,Ratio vs. Cerebellum: Striatum,[2]; 2 min,2.08 ± 0.30
same,Regional Brain Distribution Cerebellum,[2]; 2 min,0.48 ± 0.04 % dose/gram
same,Regional Brain Distribution Cortex,[2]; 2 min,0.65 ± 0.07 % dose/gram
same,Regional Brain Distribution Hippocampus,[2]; 2 min,0.60 ± 0.07 % dose/gram
same,Regional Brain Distribution Hypothalamus,[2]; 2 min,0.82 ± 0.10 % dose/gram
same,Regional Brain Distribution Remainder,[2]; 2 min,0.64 ± 0.07 % dose/gram
same,Regional Brain Distribution Striatum,[2]; 2 min,1.00 ± 0.22 % dose/gram
same,Ratio vs. Cerebellum: Cerebellum,[2]; 60 min,1.00 ± 0.00
same,Ratio vs. Cerebellum: Cortex,[2]; 60 min,1.13 ± 0.02
same,Ratio vs. Cerebellum: Hippocampus,[2]; 60 min,1.68 ± 0.12
same,Ratio vs. Cerebellum: Hypothalamus,[2]; 60 min,3.93 ± 0.15
same,Ratio vs. Cerebellum: Remainder,[2]; 60 min,1.59 ± 0.04
same,Ratio vs. Cerebellum: Striatum,[2]; 60 min,6.05 ± 0.43
same,Regional Brain Distribution Cerebellum,[2]; 60 min,0.23 ± 0.01 % dose/gram
same,Regional Brain Distribution Cortex,[2]; 60 min,0.26 ± 0.01 % dose/gram
same,Regional Brain Distribution Hippocampus,[2]; 60 min,0.39 ± 0.01 % dose/gram
same,Regional Brain Distribution Hypothalamus,[2]; 60 min,0.91 ± 0.03 % dose/gram
same,Regional Brain Distribution Remainder,[2]; 60 min,0.37 ± 0.02 % dose/gram
same,Regional Brain Distribution Striatum,[2]; 60 min,1.40 ± 0.06 % dose/gram
same,Ratio vs. Cerebellum: Striatum,[2]; [3],6.05
same,Ratio vs. Cerebellum: Cerebellum,[2]; 120 min,1.00 ± 0.00
same,Ratio vs. Cerebellum: Cortex,[2]; 120 min,1.10 ± 0.09
same,Ratio vs. Cerebellum: Hippocampus,[2]; 120 min,1.74 ± 0.32
same,Ratio vs. Cerebellum: Hypothalamus,[2]; 120 min,3.56 ± 0.49
same,Ratio vs. Cerebellum: Remainder,[2]; 120 min,1.52 ± 0.03
same,Ratio vs. Cerebellum: Striatum,[2]; 120 min,5.49 ± 0.43
same,Regional Brain Distribution Cerebellum,[2]; 120 min,0.18 ± 0.01 % dose/gram
same,Regional Brain Distribution Cortex,[2]; 120 min,0.20 ± 0.00 % dose/gram
same,Regional Brain Distribution Hippocampus,[2]; 120 min,0.31 ± 0.04 % dose/gram
same,Regional Brain Distribution Hypothalamus,[2]; 120 min,0.65 ± 0.11 % dose/gram
same,Regional Brain Distribution Remainder,[2]; 120 min,0.28 ± 0.02 % dose/gram
same,Regional Brain Distribution Striatum,[2]; 120 min,1.00 ± 0.08 % dose/gram
